For experiment [1], the system named is normoglycemic CD1 mice. The experiment can be described thus: Oral glucose tolerance test (OGTT). Format: in vivo. The conditions noted are these: 45 mg/kg, glucose 2 g/kg. On the procedure:
The studies were carried out on compounds 4b, 4g, and 5g using both normoglycemic CD1 mice and a mouse model of noninsulin-dependent diabetes mellitus (NIDDM). An oral glucose tolerance test (OGTT) was conducted on the normoglycemic mice to evaluate the hypoglycemic activity of the compounds, while an insulin tolerance test (ITT) was performed on hyperglycemic CD1 mice to assess the compounds’ capacity to enhance insulin sensitivity in streptozotocin-induced diabetic mice. Pioglitazone and GA were included as positive controls.
Healthy six-week-old male CD-1 mice, weighing between 30 and 40 g, were maintained at a temperature of 25 ± 2 °C, under a 12-h light/dark cycle and 45–65% humidity throughout the experimental period. The mice were provided with a rodent pelleted diet (Harlan Laboratories, Indianapolis, USA) and had access to water ad libitum. Sixteen hours before the experiment, all mice were fasted but still had free access to water. All animal procedures were conducted in accordance with the Mexican Federal Regulations for Animal Experimentation and Care (SAGARPA, NOM-062-ZOO-1999, Mexico) and received approval from the Institutional Animal Care and Use Committee, following guidelines outlined in the US National Institutes of Health publication (No. 85–23, revised 1985).
Animals were categorized into five groups, each consisting of four mice (n = 4). The experimental groups received an oral suspension of compounds 4b, 4g, and 5g, prepared in a 10% Tween 20/water solution, at a dosage of 50 mg/kg body weight. A control group was treated with only the 10% Tween 20 solution. The final group was administered pioglitazone at a dose of 45 mg/kg, which is recognized as a reference drug for insulin sensitization. To evaluate glucose levels, blood samples were collected from the tails of the mice at 0, 30, 60, 90, and 120 min after the administration of the vehicle, test compound, or drug. Blood glucose concentration was measured using a commercial glucometer (Accu-Chek, Performa; Roche) and the enzymatic glucose dehydrogenase method. The percentage variation in glycemia was calculated by comparing the selected postadministration glycemia (G x ) with the initial value (G0) using the following formula: %variationofglycemia=[(Gx−G0)/G0]×100 where G0 represents the initial glycemia values and Gx indicates the glycemia values at +30, + 60, + 90, and +120 min, respectively.
To determine the hypoglycemic effect of the compounds on nondiabetic animals, the compounds 4b, 4g, and 5g were administered intragastrically. Pioglitazone was used as a positive control. After 30 min, five mice/group (CD-1) were subjected to OGTT. The test was performed using glucose (2 g/kg) as substrate.

For experiment [2], the system named is STZ-induced diabetic CD-1 mice. The experiment can be described thus: Insulin tolerance test (ITT). Particulars: 45 mg/kg, insulin 0.75 IU after 30 min. It counts as in vivo. How it is done: The studies were carried out on compounds 4b, 4g, and 5g using both normoglycemic CD1 mice and a mouse model of noninsulin-dependent diabetes mellitus (NIDDM). An oral glucose tolerance test (OGTT) was conducted on the normoglycemic mice to evaluate the hypoglycemic activity of the compounds, while an insulin tolerance test (ITT) was performed on hyperglycemic CD1 mice to assess the compounds' capacity to enhance insulin sensitivity in streptozotocin-induced diabetic mice. Pioglitazone and GA were included as positive controls. […] Healthy six-week-old male CD-1 mice, weighing between 30 and 40 g, were maintained at a temperature of 25 ± 2 °C, under a 12-h light/dark cycle and 45-65% humidity throughout the experimental period. The mice were provided with a rodent pelleted diet (Harlan Laboratories, Indianapolis, USA) and had access to water ad libitum. Sixteen hours before the experiment, all mice were fasted but still had free access to water. All animal procedures were conducted in accordance with the Mexican Federal Regulations for Animal Experimentation and Care (SAGARPA, NOM-062-ZOO-1999, Mexico) and received approval from the Institutional Animal Care and Use Committee, following guidelines outlined in the US National Institutes of Health publication (No. 85-23, revised 1985). Streptozotocin (STZ) was dissolved in citrate buffer (pH 4.5), while nicotinamide was dissolved in a normal physiological saline solution. The noninsulin-dependent diabetes (NIDD) mouse model was induced in overnight-fasted mice through a single intraperitoneal injection of STZ (100 mg/kg). Nicotinamide was administered 15 min prior, at a dose of 20 mg/kg via intraperitoneal injection. […] Roche). […] Animals were categorized into five groups, each consisting of four mice (n = 4). The experimental groups received an oral suspension of compounds 4b, 4g, and 5g, prepared in a 10% Tween 20/water solution, at a dosage of 50 mg/kg body weight. A control group was treated with only the 10% Tween 20 solution. The final group was administered pioglitazone at a dose of 45 mg/kg, which is recognized as a reference drug for insulin sensitization. To evaluate glucose levels, blood samples were collected from the tails of the mice at 0, 30, 60, 90, and 120 min after the administration of the vehicle, test compound, or drug. Blood glucose concentration was measured using a commercial glucometer (Accu-Chek, Performa; Roche) and the enzymatic glucose dehydrogenase method. The percentage variation in glycemia was calculated by comparing the selected postadministration glycemia (G x ) with the initial value (G0) using the following formula: %[…]=[(Gx-G0)/G0]×100 where G0 represents the initial glycemia values and Gx indicates the glycemia values at +30, + 60, + 90, and +120 min, respectively. To evaluate the ability of GA derivatives to enhance insulin sensitivity in STZ-induced diabetic CD-1 mice, compounds 4b, 4g, and 5g were tested. Glycyrrhetinic acid (GA) and Pioglitazone served as positive controls. The GA derivatives and the positive controls were administered to the diabetic animals, followed by the administration of human rapid-acting insulin (0.75 IU) after 30 min. Subsequently, glucose levels were measured every 15 min.

In experiment [3] the target is T1, hPTP1B1–400 (Homo sapiens, UniProt P18031).
T1 construct: h PTP1B 1–400 IC 50 (μM ± S.D); made in house
T1 sequence (P18031 1-400): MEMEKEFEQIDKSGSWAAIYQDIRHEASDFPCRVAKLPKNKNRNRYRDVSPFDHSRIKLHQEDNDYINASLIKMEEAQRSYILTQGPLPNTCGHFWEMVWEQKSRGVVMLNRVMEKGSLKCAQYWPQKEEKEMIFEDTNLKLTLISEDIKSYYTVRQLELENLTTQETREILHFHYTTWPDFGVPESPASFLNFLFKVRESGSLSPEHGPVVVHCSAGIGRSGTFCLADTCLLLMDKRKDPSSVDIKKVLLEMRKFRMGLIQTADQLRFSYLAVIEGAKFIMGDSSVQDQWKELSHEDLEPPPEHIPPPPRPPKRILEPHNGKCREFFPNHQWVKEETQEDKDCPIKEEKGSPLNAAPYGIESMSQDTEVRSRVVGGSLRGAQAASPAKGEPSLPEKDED
The experiment can be described thus: PTP1B inhibition, pNPP hydrolysis, long form. Particulars: pNPP substrate, 15 min 37 °C, pH 6.8; ± S.D. Format: biochemical. How it is done:
The inhibitory activity of PTP1B was assessed using the long form of the PTP1B enzyme (hPTP1B1–400). This enzyme comprises a highly conserved N-terminal catalytic domain, known as the PTP domain (PTP1B1–300), in addition to an intrinsically disordered regulatory domain (PTP1B301–400).
The IC50 values obtained from these tests are detailed in Table .
Aliquots of 0–10 μL of the test compounds (triplicate) were taken and incubated for 15 min at 37 °C with 85 μL of Tris buffer solution (50 mM, pH 6.8) containing PTP1B enzyme and 5 μL of p-nitrophenyl phosphate substrate (pNPP, 10 mM). The absorbance of the hydrolysis product, p-nitrophenol (pNP), was measured at 405 nm using a 96-microplate absorbance reader (Accuris SmartReader 96). The inhibitory activity was determined according to eq . %enzyme=(A405b/A405c)×100 1 Where: % enzyme is the percentage of inhibition for PTP1B or TCPTP
The IC50 was calculated using regression analysis, eq : %inhibition=A100/1+(I/IC50)^s 2 Where: A100: Maximum inhibition

The test system of experiment [4] is STZ-induced diabetic rats. Particulars: earlier study of the group; cited from earlier work.
In experiment [5] the test system is HepG2 cells. The experiment is described as follows: Western blotting, HepG2 normal model. It counts as cell-based, human. Particulars: 24 h. How it is done:
(§1) HepG2 cells were obtained directly from ATCC (HB-8065) and cultured in DMEM with low glucose, supplemented with fetal bovine serum, 100 U/mL penicillin G, and […] streptomycin. The media was freshly prepared and sterilized by filtration. Cells were maintained with a maximum of 10 passages before being discarded. For cell counting, the cells were washed twice with phosphate-buffered saline (PBS), trypsinized, and counted using a Neubauer chamber. For the insulin-resistant model, 75,000 cells per well were seeded in 6-well plates at 37 °C in 5% CO2 and cultured for 72 h. Subsequently, insulin (0.1 μM) was added to induce insulin resistance for 24 h. After this period, inhibitors were incubated for 24 h, followed by a final 30 min insulin stimulation (0.1 μM) before protein extraction. For the normal model, 75,000 cells per well were seeded in 6-well plates at 37 °C in 5% CO2 and cultured for 96 h. After that, the cells were incubated with the inhibitors for 24 h, followed by protein extraction.
(§2) Treated cells were washed twice with 1 mL of PBS, and proteins were extracted using 300 μL of a buffer solution containing 10% sodium deoxycholate in 10% TEAB, supplemented with a protease and phosphatase inhibitor cocktail. The extracts were heated at 80 °C for 5 min and dissociated by repeated passages through an insulin syringe. The cell extracts were centrifuged at 15,000 rpm for 15 min at 4 °C, and the supernatant was collected. Protein quantification was performed using the bicinchoninic acid assay, and aliquots were prepared for Western blotting. SDS-PAGE was conducted, and proteins were transferred onto a nitrocellulose membrane. The membrane was blocked with 10% skim milk in TBST for 1 h and incubated overnight with primary antibodies (1:400 dilution). Secondary antibodies conjugated to horseradish peroxidase were diluted 1:2,000, and the membranes were incubated for 1 h at room temperature. Blots were visualized using the ChemiDoc MP (Bio-Rad), and densitometric analysis was performed with ImageJ (U.S. National Institutes of Health). Statistical analyses were conducted using GraphPad Prism 8.0.
compounds at 24 h of treatment. β-actin was employed as loading control. b) Densitometric analysis of western blot images
employing ImageJ analysis software. Bar graphs represent the mean ± SEM of normalized values. The control levels were set to
1. Asterisks indicate statistical significance according to the Dunn test. p* < 0.05
(§3) (1 picture or pasted object on this page, not shown here)

Experiment [6] has as its system insulin-resistant HepG2 cells. The experiment can be described thus: Western blotting, insulin-resistant HepG2 model. It counts as cell-based, human. The conditions noted are these: 24 h. On the procedure:
as §1, §2
resistance model in HepG2 cells . a) Western blotting representative analysis (n=3) of PTP1B, p -AKT, p-IRS1 and p-STAT3 levels
of HepG2 cells treated with the compounds at 24 h of treatment. β-actin was employed as loading control. b) Densitometric
analysis of western blot images employing ImageJ analysis software. Bar graphs represent the mean ± SEM of normalized values.
The control levels were set to 1. Asterisks indicate statistical significance according to the Dunn test. p* < 0.05.
as §3

The values that follow come from PMC12921516 (ACS Bio & Med Chem Au, 2025).

The structures appear in SMILES notation.

As for `CCc1ccc(CCOc2ccc(CC3SC(=O)NC3=O)cc2)nc1` (centres unmarked) [Pioglitazone, reference compound], the “hypoglycemic effect in OGTT” value in experiment [1] is recorded as “the most significant reduction in the hyperglycemic peak”. In addition, the “glycemia variation in ITT” value in experiment [2] was “markedly decrease glycemia variation”.
Take `Cc1ccc(-n2ncc3c2C(C)(C)[C@@H]2CC[C@]4(C)[C@H](C(=O)C=C5[C@@H]6C[C@@](C)(C(=O)O)CC[C@]6(C)CC[C@]54C)[C@@]2(C)C3)cc1` [FC-122, reference compound]: half-maximal inhibition in experiment [3] (IC50) was put at 2.14 ± 0.15 µM. Besides, the antihyperglycemic effects result in experiment [4] is “superior antihyperglycemic effects compared to glibenclamide and acarbose, but did not outperform pioglitazone”.
Turning to `CN(C)C(=N)N=C(N)N` [Metformin], in experiment [5], the “AKT phosphorylation (p-AKT) levels” value is on record as “notable increase” and the PTP1B levels entry is given as “neither metformin, ursolic acid, nor the GA derivatives significantly reduced PTP1B levels”. In experiment [6], the “AKT phosphorylation (p-AKT) levels” value was “notable increase” and the PTP1B levels result is listed as “neither metformin, ursolic acid, nor the GA derivatives significantly reduced PTP1B levels”.
